Laboratory results taken from patent US20060069074A1, “Genetic predictor of efficacy of anti-asthmatic agents for improving pulmonary function” (priority 2004, published 2006).

Experiments:
[1] = Double-blind randomized crossover trial of montelukast and fluticasone propionate in children with asthma; FEV1 response by B2AR diplotype; type: in vivo, human; settings: all children, 8-week treatment periods
From the text: (§1) Briefly, 144 children ages 6 to 17 years with mild to moderate persistent asthma were enrolled. […] Children with severe asthma were excluded. Strunk R, et al., supra. Informed consent, approved by the Institutional Review Board of the subject's respective study institution, was obtained from a parent/guardian.

[2] = Baseline methacholine challenge (PC20) by B2AR diplotype; type: in vivo, human; settings: for Methacholine PC20: geometric mean (95% CI), corrected for baseline percent predicted FEV1
From the text: as §1

[3] = system: β2-adrenergic receptor (B2AR); settings: cited from earlier work

CCC(=O)O[C@]1(C(=O)SCF)[C@H](C)C[C@H]2[C@@H]3C[C@H](F)C4=CC(=O)C=C[C@]4(C)[C@@]3(F)[C@@H](O)C[C@@]21C [fluticasone, fluticasone propionate]
Fraction of children with FEV1 response to fluticasone but not to montelukast [1]: one-fourth

CC(=O)OC(C)C[N+](C)(C)C (stereo not shown) [methacholine]
Methacholine PC20 ([2]; 4/4 diplotype, n=18): 0.6 (0.3, 1.1) mg/ml | Methacholine PC20 ([2]; all other diplotypes, n=106): 1.4 (1.1, 1.7) mg/ml | Dose of methacholine causing a 20% fall in FEV1, difference between groups ([2]; lower in the 4/4 diplotype than in the other diplotypes, adjusted for baseline percent predicted FEV1, p=0.015): 1.3 doubling doses

CC(C)(C)NCC(O)c1ccc(O)c(CO)c1 (stereo not shown) [albuterol]
Immediate bronchial responses to albuterol ([3]; carriers of the Arg16 allele vs carriers of the Gly16 allele, subjects naïve to B2AR-agonists): higher immediate responses | Bronchodilator response (improvement in FEV1) to albuterol ([3]; diplotype 4/6, Drysdale et al.): highest response | Lung function on regularly scheduled albuterol ([3]; homozygotes for Arg16 compared with carriers of the other two genotypes): significant deterioration in lung function
